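GI50: concentration for 50% inhibition of growth. TGI is the concentration that stops growth completely.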
Experiments:
Assay in all cases: growth of human tumour cells (NCI), 384-well format
[1] = system: HCT-15 colon
[2] = system: HCC-2998 colon
[3] = system: A549 NSCLC
[4] = system: HCT-116 colon
[5] = system: HOP-92 NSCLC
[6] = system: SF-539 CNS
[7] = system: SNB-19 CNS
[8] = system: SF-268 CNS
[9] = system: RXF 393 renal
[10] = system: OVCAR-8 ovarian
[11] = system: NCI-H23 lung
[12] = system: HS 578T breast
[13] = system: MDA-MB-231 breast
[14] = system: MDA-MB-468 breast
[15] = system: SNB-75 CNS
[16] = system: NCI-H522 lung
[17] = system: PC-3 prostate
[18] = system: COLO 205 colon
[19] = system: SK-OV-3 ovarian
[20] = system: EKVX NSCLC
[21] = system: ACHN renal
[22] = system: SR leukemia
[23] = system: MCF7 breast
[24] = system: LOX IMVI melanoma
[25] = system: CAKI-1 renal
[26] = system: M14 melanoma
[27] = system: MOLT-4 leukemia
[28] = system: BT-549 breast
[29] = system: OVCAR-5 ovarian
[30] = system: SN12C renal
[31] = system: NCI-H460 NSCLC
[32] = system: NCI-H226 lung
[33] = system: DU-145 prostate
[34] = system: NCI-H322M lung
[35] = system: TK-10 renal
[36] = system: OVCAR-4 ovarian
[37] = system: MDA-MB-435 melanoma
[38] = system: OVCAR-3 ovarian
[39] = system: HL-60(TB) leukemia
[40] = system: NCI/ADR-RES ovarian
[41] = system: SK-MEL-28 melanoma
[42] = system: SK-MEL-5 melanoma
[43] = system: RPMI-8226 leukemia
[44] = system: KM12 colon
[45] = system: A498 renal
[46] = system: HOP-62 NSCLC
[47] = system: U251 glioblastoma
[48] = system: HT29 colon
[49] = system: MALME-3M melanoma
[50] = system: SF-295 CNS
[51] = system: IGROV1 ovarian
[52] = system: T-47D breast

In the case of O=C(/C=C/c1cccnc1)NCCCCC1CCN(C(=O)c2ccccc2)CC1, the GI50 [1] was under 10 nM, the TGI [1] was under 10 nM and the GI50 [2] was under 10 nM. The TGI [2] was under 10 nM, the GI50 [3] was under 10 nM and the TGI [3] was 10.8 nM. The GI50 [4] was under 10 nM, the TGI [4] was under 10 nM and the GI50 [5] was under 10 nM. For the same compound, the TGI [5] was 24 nM, the GI50 [6] was under 10 nM and the TGI [6] was under 10 nM. For the same compound, the GI50 [7] was under 10 nM, the TGI [7] was under 10 nM and the GI50 [8] was under 10 nM. The TGI [8] was under 10 nM, the GI50 [9] was under 10 nM and the TGI [9] was under 10 nM. It also gave a GI50 [10] of under 10 nM, a TGI [10] of under 10 nM and a GI50 [11] of under 10 nM. It also gave a TGI [11] of under 10 nM, a GI50 [12] of under 10 nM and a TGI [12] of under 10 nM. It also gave a GI50 [13] of under 10 nM, a TGI [13] of under 10 nM and a GI50 [14] of under 10 nM. It also gave a TGI [14] of under 10 nM, a GI50 [15] of under 10 nM and a TGI [15] of under 10 nM. It also gave a GI50 [16] of under 10 nM, a TGI [16] of under 10 nM and a GI50 [17] of under 10 nM. For the same compound, the TGI [17] was under 10 nM, the GI50 [18] was under 10 nM and the TGI [18] was under 10 nM. It also gave a GI50 [19] of under 10 nM, a TGI [19] of under 10 nM and a GI50 [20] of under 10 nM. It also gave a TGI [20] of under 10 nM, a GI50 [21] of under 10 nM and a TGI [21] of under 10 nM. It also gave a GI50 [22] of under 10 nM, a TGI [22] of under 10 nM and a GI50 [23] of under 10 nM. The TGI [23] was under 10 nM, the GI50 [24] was under 10 nM and the TGI [24] was under 10 nM. For the same compound, the GI50 [25] was under 10 nM, the TGI [25] was under 10 nM and the GI50 [26] was under 10 nM. The TGI [26] was under 10 nM, the GI50 [27] was under 10 nM and the TGI [27] was under 10 nM. The GI50 [28] was under 10 nM, the TGI [28] was under 10 nM and the GI50 [29] was under 10 nM. The TGI [29] was under 10 nM, the GI50 [30] was under 10 nM and the TGI [30] was under 10 nM. It also gave a GI50 [31] of under 10 nM, a TGI [31] of 11.7 nM and a GI50 [32] of 60.2 nM. The TGI [32] was over 100000 nM, the GI50 [33] was under 10 nM and the TGI [33] was under 10 nM. For the same compound, the GI50 [34] was under 10 nM, the TGI [34] was under 10 nM and the GI50 [35] was under 10 nM. It also gave a TGI [35] of under 10 nM, a GI50 [36] of under 10 nM and a TGI [36] of under 10 nM. It also gave a GI50 [37] of under 10 nM, a TGI [37] of under 10 nM and a GI50 [38] of under 10 nM. For the same compound, the TGI [38] was under 10 nM, the GI50 [39] was under 10 nM and the TGI [39] was under 10 nM. For the same compound, the GI50 [40] was under 10 nM, the TGI [40] was under 10 nM and the GI50 [41] was under 10 nM. It also gave a TGI [41] of under 10 nM, a GI50 [42] of under 10 nM and a TGI [42] of under 10 nM. For the same compound, the GI50 [43] was under 10 nM, the TGI [43] was under 10 nM and the GI50 [44] was under 10 nM. It also gave a TGI [44] of under 10 nM, a GI50 [45] of 16.9 nM and a TGI [45] of 67.9 nM. The GI50 [46] was under 10 nM, the TGI [46] was under 10 nM and the GI50 [47] was under 10 nM. It also gave a TGI [47] of under 10 nM, a GI50 [48] of under 10 nM and a TGI [48] of under 10 nM. It also gave a GI50 [49] of under 10 nM, a TGI [49] of 13.9 nM and a GI50 [50] of under 10 nM. It also gave a TGI [50] of under 10 nM, a GI50 [51] of under 10 nM and a TGI [51] of under 10 nM. For the same compound, the GI50 [52] was under 10 nM and the TGI [52] was under 10 nM.

— PubChem BioAssay (NCI)
